Data on one substance can be found in patent publication US20240226227A9, “BONE DISEASE TREATMENT” (The University of Birmingham, priority 2019, published 2024).

For assay [1], the system named is primary human osteoblasts. The assay can be described thus: Alkaline phosphatase activity (mineralization), primary human osteoblasts. Format: cell-based. To be noted: 10 ng/ml PEPITEM, vs untreated cells, paired t-test. The method, then: Human osteoarthritis subchondral joint tissue was obtained at the time of total knee and hip joint replacement operations from the Royal Orthopaedic Hospital (Birmingham). To isolate primary osteoblasts, cartilage was removed from the femoral condyles and tibial plateaus and cut into 2 mm^2 pieces. Samples were kept in media and cleaned of fat. Media contains DMEM (Sigma™, D6546), FCS (10%), GPS (1%), Non-essential amino acid (1%; Sigma™, M7145), β-glycerophosphate (2 mM; Sigma™—G9422) and L-Ascorbic acid (50 μg/ml; Sigma™, A5960). Bone chips were placed in T75 flasks in 10 ml of media, replacing media every 2-3 days. Main outgrowth occurs between 10-14 days, after which chips were placed in new flasks. […]
(§1) Osteoblasts were cultured in mineralization differentiation media in the presence or absence of PEPITEM (10 ng/ml) over a 21-day period, dependent on cell source. Mineralization was assessed by quantifying the amount of alizarin red (nM) or the level of alkaline phosphate activity (absorbance at 405 nm) per condition.
To measure alkaline phosphatase activity, cells were washed in PBS before being lysed in 100 μl of RIPA buffer (Thermo Fisher™, R0278) for 15 minutes on ice. […] The plate was wrapped in foil and left to run for 45 minutes at 37° C. in an incubated shaker (SciQuip™; Shropshire, UK) before being quantified using a Synergy HT plate reader (BioTek™) with absorbance set at 405 nm.

The test system of assay [2] is long bones of wild-type mice. The assay can be described thus: 3-point bending test of long bones ex vivo after treatment of mice. Format: in vivo, mouse. The note with it: daily injections for 14 days, vs PBS. The method, then: (§2) WT mice were housed in the Biomedical Services Unit at the University of Birmingham. Mice were used between 6 and 16 weeks of age. • 1. Homeostasis—Six-week-old male wild-type mice were treated with or without daily intraperitoneal (i.p.) injections of PEPITEM (300 μg) for 2 weeks. Mice were culled at 2 weeks to examine the effect of PEPITEM on bone homeostasis in young resting bones. • 2. Ovariectomy (model of age-related osteoporosis)—Twelve-week-old female wild-type mice were subjected to ovariectomy (OVX). Two weeks post-surgery, mice were treated with or without daily i.p. injections of PEPITEM (300 μg) for 2 weeks. Mice were culled at 2 weeks to obtain baseline bone loss measurements, or at 4 weeks to examine the effect of PEPITEM on OVX-induced bone loss. • 3. Analysis of murine bone parameters—Histomorphometry analysis was performed on long bones (femur; tibia) and/or spine to determine the effects of PEPITEM on the structural architecture of the tissue, cellular distribution and bone volume, including TRAP and Toluidine blue staining for osteoclasts and osteoblasts respectively. For information on these staining methods, see Das, P. et al., PNAS, 2018, 115(43), E10137-E10146 and Waddington, R. J. and Sloan, A. J. eds. Tissue Engineering and Regeneration in Dentistry: Current Strategies. West Sussex: John Wiley & Sons. Femurs were subjected to a 3-point bending test using a Bose 5500 (Bose) to determine the stiffness of the bones and the force required to fracture the bone. For more information on the 3-point bending test method, see Huesa, C. et al., Bone, 2011, 48(5), 1066-1074.

Assay [3] relates to murine osteoblast cell line MC3T3. Briefly: Alizarin red mineralization assay, MC3T3 osteoblast cell line. To be noted: MC3T3 cells, 10 ng/ml PEPITEM in differentiation media, up to 21 days, vs untreated cells. Format: cell-based, mouse. The method, then:
The spontaneously immortalised murine MC3T3-E1 cell line (ATCC, England, UK, CRL-2593) was brought up from liquid nitrogen and cultured in basal media made up of: αMEM media (Sigma-Aldrich™, St. Louis, MO, USA, M8042) supplemented with 2 mM L-Glutamine, 100 U/ml Penicillin and 100 μg/ml Streptomycin (all from Sigma-Aldrich™, G1146) and fetal bovine serum [(FBS) Biosera™, East Sussex, UK, FB1001]. […] Mineralisation was assessed using an Alizarin red staining quantification assay and ALP activity.
as §1
(§3) Alizarin red analysis was performed following the manufacturer's instructions (Caltag+Medsystems™, Buckingham, UK, SC8678). […] Alizarin red was quantified using ImageJ™ (NIH) by removing backing, converting to a binary image and measuring area fraction stained. […]

In assay [4] the test system is long bones of wild-type mice. The assay can be described thus: Bone homeostasis in young healthy mice, microCT of long bones. Format: in vivo, mouse. To be noted: daily i.p. 300 μg for 14 days, vs PBS. The method, then:
(§4) All experiments were performed in accordance with UK Home Office regulations. For the animal studies, in each experiment wild-type (WT) animals were allocated at random to different experimental groups. Importantly, mice from the same litter were randomly distributed amongst the experimental groups, and where possible, they were equally distributed amongst experimental groups. Injections of peptide were carried out at the same time of day, with identical reagents when possible. The investigators were not blinded to allocation during experiments and outcome assessment. All samples analyzed were included in the study.
as §2

For assay [5], the system named is primary murine osteoblast cells. Briefly: Alizarin red mineralization assay, primary murine osteoblasts. Format: cell-based, mouse. To be noted: 10 ng/ml PEPITEM, vs untreated cells, paired t-test. The method, then:
Day 3-5 WT mouse pups were culled via decapitation and heads were washed briefly in 70% ethanol and kept hydrated in αMEM media supplemented with 2 mM L-Glutamine, 100 U/ml Penicillin and 100 μg/ml Streptomycin. Skin was removed from around calvaria using forceps, and the calvaria was dissected out and cleaned of any contaminating tissue. Calvaria were added to αMEM media supplemented with 1 mg/ml of collagenase d (Roche™, Basel, Switzerland, COLLD-RO). Tubes were then agitated at 37° C. for 10 minutes and the media discarded. αMEM media supplemented with 1 mg/ml of collagenase d was again added to calvaria and shaken at 37° C. for 30 minutes. […] Cells on ice were then spun down at 300 g for 4 minutes, resuspended in 1 ml of Basal media and counted using a haemocytometer. […]
as §1, §3

Assay [6] concerns osteoclasts and chondroclasts in tibia of wild-type mice. Briefly: TRAP staining of decalcified tibia sections, osteoclast and chondroclast counts. Format: in vivo, mouse. To be noted: daily injections for 14 days, vs PBS. The method, then: WT mice were housed in the Biomedical Services Unit at the University of Birmingham. Mice were used between 6 and 16 weeks of age. • 1. Homeostasis—Six-week-old male wild-type mice were treated with or without daily intraperitoneal (i.p.) injections of PEPITEM (300 μg) for 2 weeks. Mice were culled at 2 weeks to examine the effect of PEPITEM on bone homeostasis in young resting bones. • 2. Ovariectomy (model of age-related osteoporosis)—Twelve-week-old female wild-type mice were subjected to ovariectomy (OVX). Two weeks post-surgery, mice were treated with or without daily i.p. injections of PEPITEM (300 μg) for 2 weeks. Mice were culled at 2 weeks to obtain baseline bone loss measurements, or at 4 weeks to examine the effect of PEPITEM on OVX-induced bone loss. • 3. […]
For analysis of whole hind limb sections, Zen Blue software (ZEISS, Cambridge, UK) was used to break whole leg scans into regions of 20 μm by 20 μm, which were saved as images (JPEG) and opened on ImageJ™ (National institute of health (NIH); Maryland, USA). […] Osteoclasts were counted per region using ImageJ™ count maxima tool, where maxima were defined according to noise tolerance to neighboring squares and given as total number of osteoclasts per section. […]

Assay [7] has as its system ovariectomized wild-type mice. The assay can be described thus: Ovariectomy model of age-related osteoporosis, microCT of long bones. The note with it: OVX mice. Format: in vivo, mouse. The method, then: as §4, §2
Assay [8] relates to vertebra of wild-type mice. The assay can be described thus: Bone homeostasis in young healthy mice, microCT of vertebra. Format: in vivo, mouse. To be noted: daily i.p. 300 μg for 14 days, vs PBS. The method, then:
as §4, §2

Where [9] appears, read: long bones, daily i.p. 300 μg for 2 weeks from 2 weeks post surgery, vs untreated.

As to “PEPITEM (SVTEQGAELSNEER; listed as Homo sapiens)”, the “osteoblast mineralization (alkaline phosphatase activity)” value in assay [1] is “significantly increased”. Also, in assay [2], the bending force entry was “significantly increased”, the fracture force entry was “significantly increased” and the “stiffness of the bone” value is on record as “significantly increased”. In addition, the “production of bone mineral (Alizarin Red staining)” value in assay [3] was “stimulates the production of bone mineral”. Also, in assay [4], the “bone volume to trabecular bone volume ratio (BV/TV)” value is listed as “significantly increased”, the trabecular number result was “significantly increased”, the trabecular separation entry was “decreased” and the trabecular thickness result is reported as “significantly increased”. Besides, in assay [5], the “osteoblast mineralization (Alizarin Red staining)” value is reported as “significantly increased”. Also, in assay [6], the “number of chondroclasts per μm” value is “reduced” and the “number of osteoclasts per mm^2 within the tibia” value is “significantly reduces”. In addition, the “additional bone loss after ovariectomy” value in assay [7] (4 weeks post surgery, compared to 2-week untreated (baseline) mice) is “prevented additional bone loss”. Also, in assay [7] (setting [9]), the “bone volume to trabecular bone volume ratio (BV/TV)” value was “significantly increased”, the trabecular number entry was “significantly increased”, the trabecular separation entry is “decreased” and the trabecular thickness result is recorded as “significantly increased”. Besides, in assay [8], the “bone volume to trabecular bone volume ratio (BV/TV)” value is reported as “significantly increased”, the trabecular number result was “significantly increased”, the trabecular separation entry is recorded as “decreased” and the trabecular thickness result is “significantly increased”.
